Laboratory results published in the NIST ThermoML archive (doi:10.1016/j.jct.2013.09.007).
Numbers after ± are expanded uncertainties.

Assay: activity coefficient (dimensionless); of the first substance listed, at infinite dilution; xn = mol fraction of the nth substance listed
Conditions: 101 kPa, Liquid, Chromatography, x1 = 0

Row | Structure (SMILES) | activity coefficient (338.15 K) | activity coefficient (348.15 K) | activity coefficient (358.15 K) | activity coefficient (368.15 K) | activity coefficient (308.15 K) | activity coefficient (318.15 K) | activity coefficient (328.15 K)
1 | CCO [ethanol] + CCCC[n+]1cccc(C)c1.N#C[N-]C#N | 0.549 ± 0.04 | 0.545 ± 0.04 | 0.541 ± 0.04 | 0.537 ± 0.039 | – | – | –
2 | CCOCC [diethyl ether] + CCCC[n+]1cccc(C)c1.N#C[N-]C#N | 6.26 ± 0.43 | 6.22 ± 0.42 | 6.19 ± 0.42 | 6.15 ± 0.42 | 6.37 ± 0.43 | 6.33 ± 0.43 | 6.29 ± 0.43
3 | Cc1ccccc1C [1,2-dimethylbenzene] + CCCC[n+]1cccc(C)c1.N#C[N-]C#N | 2.51 ± 0.17 | 2.58 ± 0.18 | 2.64 ± 0.18 | 2.71 ± 0.18 | – | – | 2.47 ± 0.17
4 | CC1CCCCC1 [methylcyclohexane] + CCCC[n+]1cccc(C)c1.N#C[N-]C#N | 27.3 ± 1.9 | 25.5 ± 1.7 | 23.9 ± 1.6 | 22.6 ± 1.5 | 34.1 ± 2.3 | 31.5 ± 2.2 | 29.3 ± 2
5 | C#CCCCC [1-hexyne] + CCCC[n+]1cccc(C)c1.N#C[N-]C#N | 4.45 ± 0.3 | 4.55 ± 0.31 | 4.62 ± 0.31 | 4.72 ± 0.32 | 4.13 ± 0.28 | 4.25 ± 0.29 | 4.35 ± 0.3
6 | O=C1CCCCC1 [cyclohexanone] + CCCC[n+]1cccc(C)c1.N#C[N-]C#N | 0.928 ± 0.059 | 0.96 ± 0.06 | 0.988 ± 0.062 | 1.01 ± 0.06 | – | – | –
7 | CCCCCCCCC [nonane] + CCCC[n+]1cccc(C)c1.N#C[N-]C#N | 134 ± 9 | 122 ± 8 | 112 ± 8 | 103 ± 7 | 182 ± 13 | 162 ± 11 | 148 ± 10
8 | C=C(C)c1ccccc1 [(1-methylethenyl)benzene] + CCCC[n+]1cccc(C)c1.N#C[N-]C#N | 2.21 ± 0.15 | 2.33 ± 0.16 | 2.44 ± 0.17 | 2.55 ± 0.17 | – | – | 2.1 ± 0.14
9 | Cc1cccc(C)c1 [1,3-dimethylbenzene] + CCCC[n+]1cccc(C)c1.N#C[N-]C#N | 3.06 ± 0.21 | 3.14 ± 0.21 | 3.2 ± 0.22 | 3.28 ± 0.22 | – | – | 3.01 ± 0.2
10 | O [water] + CCCC[n+]1cccc(C)c1.N#C[N-]C#N | 0.294 ± 0.031 | 0.302 ± 0.031 | 0.307 ± 0.031 | 0.314 ± 0.031 | – | – | –
11 | CCc1ccccc1 [ethylbenzene] + CCCC[n+]1cccc(C)c1.N#C[N-]C#N | 3.26 ± 0.22 | 3.32 ± 0.23 | 3.35 ± 0.23 | 3.41 ± 0.23 | – | – | 3.21 ± 0.22
12 | CCC(C)CC [3-methylpentane] + CCCC[n+]1cccc(C)c1.N#C[N-]C#N | 39.8 ± 2.7 | 36.9 ± 2.5 | 34.7 ± 2.4 | 32.4 ± 2.2 | 50.9 ± 3.5 | 47 ± 3.2 | 43.1 ± 3
13 | CCCCCCCCCC [decane] + CCCC[n+]1cccc(C)c1.N#C[N-]C#N | 198 ± 14 | 179 ± 12 | 163 ± 11 | 149 ± 10 | 275 ± 19 | 244 ± 17 | 219 ± 15
14 | C=CCCC [1-pentene] + CCCC[n+]1cccc(C)c1.N#C[N-]C#N | 13.7 ± 0.9 | 13.1 ± 0.9 | 12.6 ± 0.9 | 12.2 ± 0.8 | 15.3 ± 1 | 14.7 ± 1 | 14.1 ± 1
15 | C1CCCCC1 [cyclohexane] + CCCC[n+]1cccc(C)c1.N#C[N-]C#N | 18.5 ± 1.3 | 17.4 ± 1.2 | 16.5 ± 1.1 | 15.6 ± 1.1 | 23 ± 1.6 | 21.2 ± 1.4 | 19.8 ± 1.4
16 | c1ccsc1 [thiophene] + CCCC[n+]1cccc(C)c1.N#C[N-]C#N | 0.89 ± 0.057 | 0.911 ± 0.058 | 0.937 ± 0.059 | 0.955 ± 0.06 | 0.822 ± 0.053 | 0.844 ± 0.054 | 0.868 ± 0.055
17 | C1CCCCCCC1 [cyclooctane] + CCCC[n+]1cccc(C)c1.N#C[N-]C#N | 27.8 ± 1.9 | 25.8 ± 1.8 | 24.2 ± 1.7 | 22.7 ± 1.6 | 35.1 ± 2.4 | 32 ± 2.2 | 29.7 ± 2
18 | C=Cc1ccccc1 [styrene] + CCCC[n+]1cccc(C)c1.N#C[N-]C#N | 1.44 ± 0.09 | 1.49 ± 0.1 | 1.54 ± 0.1 | 1.59 ± 0.11 | – | – | 1.39 ± 0.09
